Assay results as given in ChEMBL document CHEMBL2412992, “Fluorescent ligands for adenosine receptors” (Bioorg Med Chem Lett, 2013).

Target: Uncharacterized protein (Bos taurus, UniProt E1BKU0)
Experiment: Displacement of [3H]CGS21680 from adenosine A2A receptor in bovine striatal membranes after 90 mins by liquid scintillation counting analysis
Format: cell membranes, Striatum, Membrane

Chain of Uncharacterized protein (E1BKU0 whole entry): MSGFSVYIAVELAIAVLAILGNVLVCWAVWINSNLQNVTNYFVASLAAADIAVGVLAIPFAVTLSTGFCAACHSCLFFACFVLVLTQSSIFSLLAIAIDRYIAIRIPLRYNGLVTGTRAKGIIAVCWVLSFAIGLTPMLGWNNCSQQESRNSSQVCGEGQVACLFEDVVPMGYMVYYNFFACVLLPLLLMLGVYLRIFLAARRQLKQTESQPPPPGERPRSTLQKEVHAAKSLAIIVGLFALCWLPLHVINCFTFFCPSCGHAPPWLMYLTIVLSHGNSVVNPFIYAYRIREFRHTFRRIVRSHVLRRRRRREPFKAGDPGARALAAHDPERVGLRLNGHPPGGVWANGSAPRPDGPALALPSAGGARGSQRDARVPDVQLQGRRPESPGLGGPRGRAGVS

CCNC(=O)[C@H]1O[C@@H](n2cnc3c(N)nc(NCCc4ccc(CCC(=O)NCCNC(=S)Nc5ccc(C6c7ccc(O)cc7OC7=CC(=O)C=CC76)c(C(=O)O)c5)cc4)nc32)[C@H](O)[C@@H]1O (stereo partly specified)
Ki: 11.2 nM
